From patent US12145975B2, “Fusion proteins for the treatment of cardiometabolic diseases” (Shattuck Labs, Inc., priority 2022, dated 2024)
Entries after “also recorded” stand apart in the source; their conditions may differ. Where no end group is shown, it is not given here.

How the values were obtained:
[1] = test system: HFD-fed mice; assay: glucose tolerance test (GTT) model in HFD-fed mice; format: in vivo; conditions: for serum insulin following glucose administration (time course): FIG. 7C; for serum glucose following glucose administration (time course): i.v. treatment, 18 hours fast, 2 g/kg glucose i.v., tirzepatide 1.25 mpk, fusion protein 5 mpk, mRNA 1 mpk, FIG. 7A
Method: Cages were changed once, then changed once a week.
The mice administered the above treatment by i.v. injections. The mice were then fasted for 18 hours and administered a dose of 2 g/kg glucose by i.v. injections. Blood samples were drawn by tail clip bleeding at 15, 30 and 60 minutes post dosing and cardiac bleeding was used at 2 hours after glucose injection as end-point.

[2] = test system: HFD-fed mice; assay: longer-term obesity model in HFD-fed mice; conditions: for blood glucose levels compared to the untreated mice: Days 0, 1, 10 and 15, FIG. 8E; for plasma insulin levels on Day 15: FIG. 8C right panel; for average daily food intake compared to the untreated mice: FIG. 8D; for hepatocellular ballooning and steatosis (liver H&E histology): FIG. 8J; for plasma insulin levels on Day 1: between 15 and 120 minutes after treatment, FIG. 8C left panel; for liver weight, PBS control versus treated mice / subcutaneous white adipose tissue (sWAT) weight: day 19 terminal necropsy; for liver weight, PBS control versus treated mice: FIG. 8G; for subcutaneous white adipose tissue (sWAT) weight: FIG. 8H; for tolerability / clinical observations: obesity model, repeated tail vein dosing; for change in body weight: tail vein on Day 0, 4, 7, 10, 14, 18, dulaglutide 1 mpk, tirzepatide 0.5 mpk, fusion protein 5 mpk, mRNA 1 mpk, FIG. 8A
Method: Mice (Male C57BL/6) were of approximately 13 weeks of age were housed 4 mice per cage. Following 2 weeks of acclimation, mice were introduced to 60% kcal HFD (Research Diets D12492). Cages were changed once, then changed once a week. Weekly body weights and non-fasted blood glucose were collected.
Mice were injected by tail vein with vehicle or the drugs on Day 0, Day 4, Day 7, Day 10, Day 14, and Day 18. Body weights were measured every 2 days. Change in body weight was calculated and plotted.
Cumulative food intake was measured between day 0 and 3, between day 4 and 7, between day 7 and day 11, and between day 11 and day 14, and represented as average daily food intake. For food consumption, remaining food was weighed on days 3, 8, and 15, and subtracted from the starting weight. This value was then normalized to the number of mice in the cage, and the number of days the mice had access to the food prior to weighing.
Blood glucose levels were measured on Days 0, 1, 10 and 15 and plotted.
On day 19 during terminal necropsy, liver and subcutaneous white adipose tissue were recovered weighed from treated animals.
To further analyze the changes in liver, histopathological analysis was conducted. Briefly, the liver tissue was stained with hematoxylin and eosin (H&E) and evaluated using standard techniques.

[3] = molecular target: T1, GIPR (Rattus norvegicus, UniProt P43219); assay: GIPR agonism/antagonism in rat INS-1 cells having pGloSensor-22F biosensor; format: cell-based; design: dose or concentration left out as unconfirmed
T1 construct: endogenous in cells; host or cells: rat INS-1 insulinoma cells (derivatives with a cAMP-luciferase reporter or pGloSensor-22F)
T1 sequence (P43219 19-455): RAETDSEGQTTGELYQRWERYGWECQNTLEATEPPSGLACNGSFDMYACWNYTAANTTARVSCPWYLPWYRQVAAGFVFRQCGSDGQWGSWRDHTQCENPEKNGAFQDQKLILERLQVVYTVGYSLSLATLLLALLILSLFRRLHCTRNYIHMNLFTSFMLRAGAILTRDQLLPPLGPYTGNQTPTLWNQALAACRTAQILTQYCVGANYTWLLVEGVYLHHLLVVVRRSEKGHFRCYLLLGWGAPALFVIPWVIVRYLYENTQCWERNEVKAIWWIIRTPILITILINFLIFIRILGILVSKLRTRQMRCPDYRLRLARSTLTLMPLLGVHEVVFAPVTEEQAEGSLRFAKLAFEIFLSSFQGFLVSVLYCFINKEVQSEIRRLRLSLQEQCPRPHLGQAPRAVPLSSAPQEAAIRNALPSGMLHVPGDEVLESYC
Method: A series of GIP antagonist peptides were evaluated at blocking human GIP (hGIP) agonism and the induction of cAMP. Briefly, rat INS-1 cells having pGloSensor-22F (Promega) were constructed and used to evaluate GIPR agonism and antagonism. […] The conformational change leads to the activation of the luciferase enzyme, thereby allowing detection of activation of GIPR, which produces cAMP upon activation.
To assay for GIPR agonism, rat INS-1 cells having pGloSensor-22F biosensor were treated with increasing concentrations of GIP(Ag). Immediately after the addition, the luminescence of the cells was measured, normalized using the basal luminescence and plotted.
GIPR antagonism was measured as the inhibition of GIP(Ag)-induced activation of the cAMP-luciferase reporter gene in rat INS-1 cells having pGloSensor-22F biosensor. The following GIP derivatives accessed in this assay for GIPR antagonism: GIP(Ant 3-30), GIP(Ant 3-30NH2), (GIP(Ant 3-30) having amidated carboxy terminus), GIP(AntPro3), GIP(AntPro3NH2), GIP(Ant3-30, Pro3) and GIP(Ant3-30, Pro3NH2). Briefly, rat INS-1 cells having pGloSensor-22F were treated with increasing doses of the above various GIP derivatives, mixed with […] GIP(Ag). Immediately after the addition, the luminescence of the cells was measured, normalized using the basal luminescence and plotted.
The GIP(Ag) was re-evaluated across a broader concentration range. Rat INS-1 cells having pGloSensor-22F biosensor were treated with increasing concentrations of GIP(Ag). Immediately after the addition, the luminescence of the cells was measured, normalized using the basal luminescence and plotted.
The GIP(AntPro3) and GIP(AntPro3NH2) were re-evaluated across a broader concentration range. Briefly, rat INS-1 cells having pGloSensor-22F were treated with increasing doses of GIP(AntPro3) and GIP(AntPro3NH2), mixed with […] GIP(Ag). Immediately after the addition, the luminescence of the cells was measured, normalized using the basal luminescence and plotted.

[4] = molecular target: T2, GIP receptor (GIPR) (Rattus norvegicus, UniProt P43219); assay: cAMP-Glo assay in rat insulinoma INS-1 cells harboring a cAMP-luciferase reporter gene; format: cell-based; conditions: 1 hour glucose, then 2 hour incubation with increasing amounts; FIG. 4A
T2 construct: endogenous in cells; host or cells: rat INS-1 insulinoma cells (derivatives with a cAMP-luciferase reporter or pGloSensor-22F)
T2 sequence (P43219 19-455): T1 sequence (P43219 19-455)
Description: Rat insulinoma INS-1 cells harboring a cAMP-luciferase reporter gene were used to study the activation of GIPR. Without wishing to be bound by theory, the activation of GIPR leads to temporary depletion of ATP because of consumption of ATP in cyclization reaction to produce cAMP as well as by phosphorylation by protein kinase A of its substrate. Without wishing to be bound by theory, the temporary depletion of ATP leads to an inhibition of luciferase activity, which needs ATP as a substrate.

[5] = broader concentration range, mixed with GIP(Ag), FIG. 5B
[6] = increasing doses mixed with GIP(Ag), FIG. 5A

Row | Substance | serum insulin following glucose administration (time course) ([1]; GTT) | glucose tolerance ([1]; GTT, summary of Example 11) | serum glucose following glucose administration (time course) [1] | blood glucose levels compared to the untreated mice [2] | weights of individual mice ([2]; FIG. 8B) | plasma insulin levels on Day 15 [2] | average daily food intake compared to the untreated mice [2] | collagen staining (fibrosis), liver sections stained with picrosirius red ([2]; FIG. 8I) | hepatocellular ballooning and steatosis (liver H&E histology) [2] | plasma insulin levels on Day 1 [2] | liver weight, PBS control versus treated mice [2] | subcutaneous white adipose tissue (sWAT) weight [2] | tolerability / clinical observations [2] | collagen staining (fibrosis) in comparison with tirzepatide or dulaglutide ([2]; picrosirius red, FIG. 8I) | change in body weight [2] | inhibition of GIP(Ag)-induced activation of the cAMP-luciferase reporter gene (GIPR antagonism) [3, 5] | inhibition of GIP(Ag)-induced activation of the cAMP-luciferase reporter gene (GIPR antagonism) [3, 6] | inhibition of luciferase (activation of GIPR) [4] | hepatocellular ballooning and steatosis (liver H&E histology) compared to untreated animals ([2]; higher magnifications, FIG. 8K)
1 | GLP-1-Fc-GIP(AntPro3): chimeric protein: GLP-1 fused to GIP antagonist (amino acids 1-42, E3P) via IgG1 Fc domain; SEQ ID NO: 95 | rapid induction of insulin | improved glucose tolerance | much smaller increase in serum glucose | decrease in blood glucose | induced weight loss | significant decrease in the levels of insulin | decrease in food intake | decrease in collagen staining | decrease in hepatocellular ballooning and steatosis | rapid decrease in insulin levels | the livers of control mice that received only PBS were much heavier compared to the mice receiving treatments | decreased | well tolerated and no overt toxicities were noted | greater decrease in collagen staining compared to the livers from mice treated with tirzepatide or dulaglutide | progressive weight loss |  |  |  | 
2 | GIP(AntPro3NH2): GIP antagonist peptide, GIP(AntPro3) presumably with amidated carboxy terminus (YAPGTFISDYSIAMDKIHQQDFVNWLLAQKGKKNDWKHNITQ; also: presumably amidated C-terminus) |  |  |  |  |  |  |  |  |  |  |  |  |  |  |  | dose-dependent inhibition of GIP(Ag)-induced activation of the cAMP-luciferase reporter gene | more potent inhibition of GIP agonist signaling than the others tested; also recorded: maximal level of a dose-dependent inhibition of GIP(Ag)-induced activation |  | 
3 | dulaglutide [reference compound] |  |  |  | decrease in blood glucose |  | significant decrease in the levels of insulin | decrease in food intake | decrease in collagen staining | decrease in hepatocellular ballooning and steatosis | rapid decrease in insulin levels | the livers of control mice that received only PBS were much heavier compared to the mice receiving treatments | decreased | well tolerated and no overt toxicities were noted |  | progressive weight loss |  |  |  | 
4 | GIP(AntPro3): GIP Antagonist (amino acids 1-42, having a E3P substitution); SEQ ID NO: 97 (YAPGTFISDYSIAMDKIHQQDFVNWLLAQKGKKNDWKHNITQ) |  |  |  |  |  |  |  |  |  |  |  |  |  |  |  | dose-dependent inhibition of GIP(Ag)-induced activation of the cAMP-luciferase reporter gene | more potent inhibition of GIP agonist signaling than the others tested; also recorded: maximal level of a dose-dependent inhibition of GIP(Ag)-induced activation |  | 
5 | tirzepatide [reference compound] | rapid induction of insulin |  | much smaller increase in serum glucose | decrease in blood glucose |  | significant decrease in the levels of insulin | decrease in food intake | decrease in collagen staining | decrease in hepatocellular ballooning and steatosis |  | the livers of control mice that received only PBS were much heavier compared to the mice receiving treatments | decreased |  |  | progressive weight loss |  |  | dose-dependent and saturable inhibition of luciferase with similar potency | significant decrease in hepatocellular ballooning and steatosis
